Structures can show the parent of a compound that is named as a salt.

Results on 6 compounds are retold here after US6680323B2, “Dihydropyrimidines and uses thereof” (Synaptic Pharmaceutical Corporation, priority 1998, dated 2004).

One assay concerns the target T1, human α2b receptor (Homo sapiens, UniProt P18089).
T1 construct: expressed in transfected cells
T1 sequence (P18089 1-450): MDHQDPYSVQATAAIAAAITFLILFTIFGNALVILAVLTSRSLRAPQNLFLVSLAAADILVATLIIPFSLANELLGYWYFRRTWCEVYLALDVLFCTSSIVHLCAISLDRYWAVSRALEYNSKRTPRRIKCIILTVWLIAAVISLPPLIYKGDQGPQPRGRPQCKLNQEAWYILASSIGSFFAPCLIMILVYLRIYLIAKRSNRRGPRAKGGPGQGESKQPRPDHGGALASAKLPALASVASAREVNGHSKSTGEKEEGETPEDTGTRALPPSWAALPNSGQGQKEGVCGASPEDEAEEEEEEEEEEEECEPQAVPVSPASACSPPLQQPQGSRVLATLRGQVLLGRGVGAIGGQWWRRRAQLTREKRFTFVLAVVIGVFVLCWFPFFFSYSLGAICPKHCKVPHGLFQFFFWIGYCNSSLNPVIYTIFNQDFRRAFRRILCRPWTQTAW
Description: Competition binding ([3H]rauwolscine) at cloned human α2b receptor. Conditions: transfected LM(tk−) cells, [3H]rauwolscine 0.5 nM; read-out: Binding affinity hα2b. The source says: (§1) α2 Human Adrenergic Receptors
(§2) To determine the potency of α1 antagonists at the α2 receptors, LM(tk−) cell lines stably transfected with the genes encoding the α2a, α2b, and α2c receptors were used. The cell line expressing the α2a receptor is designated L-α2A, and was deposited on Nov. 6, 1992 under ATCC Accession No. CRL 11180. The cell line expressing the α2b receptor is designated L-NGC-α2B, and was deposited on Oct. 25, 1989 under ATCC Accession No. CRL10275. The cell line expressing the α2c receptor is designated L-α2C, and was deposited on Nov. 6, 1992 under ATCC Accession No. CRL-11181. All the cell lines were deposited with the American Type Culture Collection, 12301 Parklawn Drive, Rockville, Md. 20852, U.S.A. under the provisions of the Budapest Treaty for the International Recognition of the Deposit of Microorganisms for the Purposes of Patent Procedure. Cell lysates were prepared as described above (see Radioligand Binding Assays), and suspended in 25 mM glycylglycine buffer (pH 7.6 at room temperature). Equilibrium competition binding assay were performed using [3H]rauwolscine (0.5 nM), and nonspecific binding was determined by incubation with 10 μM phentolamine. The bound radioligand was separated by filtration through GF/B filters using a cell harvester.

In another assay the target is T2, human α2c receptor (Homo sapiens, UniProt P18825).
T2 construct: expressed in transfected cells
T2 sequence (P18825 1-462): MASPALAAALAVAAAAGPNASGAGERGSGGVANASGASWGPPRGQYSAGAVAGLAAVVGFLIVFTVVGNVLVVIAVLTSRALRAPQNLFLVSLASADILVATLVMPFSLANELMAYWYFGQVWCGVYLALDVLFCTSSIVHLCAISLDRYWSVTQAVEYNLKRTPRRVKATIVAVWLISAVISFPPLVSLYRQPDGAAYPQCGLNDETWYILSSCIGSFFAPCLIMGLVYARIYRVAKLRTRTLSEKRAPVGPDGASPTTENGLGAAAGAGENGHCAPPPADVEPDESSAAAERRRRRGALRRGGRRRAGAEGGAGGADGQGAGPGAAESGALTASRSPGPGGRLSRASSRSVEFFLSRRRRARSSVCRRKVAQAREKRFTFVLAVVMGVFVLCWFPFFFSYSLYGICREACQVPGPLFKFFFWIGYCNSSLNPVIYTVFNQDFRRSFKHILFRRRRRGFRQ
Description: Competition binding ([3H]rauwolscine) at cloned human α2c receptor. To be noted: transfected LM(tk−) cells, [3H]rauwolscine 0.5 nM; read-out: Binding affinity hα2c.
From the text: as §1, §2

Take `O=C1OCC2=C1C(c1ccc(F)c(F)c1)N(C(=O)NCCCN1CCC(c3ccccn3)CC1)C(=O)N2` (single isomer, unassigned; (+)) [Compound 8, (+)-1-3-{[4-(3,4-Difluorophenyl)-2,5-dioxo-1,2,5,7-tetrahydro-4H-furo[3,4-d]-pyrimidine-3-carbonyl]amino}-propyl-4-(2-pyridyl)-piperidine]: the results for the Ki on human α2b receptor and on human α2c receptor were 0.97 µM and 1.5 µM, respectively.

Regarding `COCC1=C(C(=O)OC)[C@H](c2ccc(F)c(F)c2)N(C(=O)NCCCO)C(=O)N1` [Compound 1, (+)-1,2,3,6-Tetrahydro-1-(3-hydroxypropyl)carboxamido-5-methoxycarbonyl-4-methoxymethyl-6-(3,4-difluorophenyl)-2-oxo-pyrimidine], the Ki at human α2b receptor is 26 µM; at human α2c receptor it was over 50 µM.

For `COCC1=C(C(=O)OC)[C@H](c2ccc(F)c(F)c2)N(C(=O)NCCCN2CCC(c3cccc[n+]3[O-])CC2)C(=O)N1` [Compound 2, (+)-1,2,3,6-Tetrahydro-1-{N-[4-(2-pyridyl)piperidin-1-yl]propyl}carboxamido-5-methoxycarbonyl-4-methoxymethyl-6-(3,4-difluorophenyl)-2-oxopyrimidine-pyridine-N-oxide hydrochloride], the Ki stood at 8.7 µM at human α2b receptor and 1.5 µM on human α2c receptor.

For `COCC1=C(C(=O)OC)[C@H](c2ccc(F)c(F)c2)N(C(=O)NCCC[n+]2ccc(-c3ccccn3)cc2)C(=O)N1` [Compound 3, 4-(2-Pyridyl)-1-{3-[5-carboxymethyl-4-methoxymethyl-2-oxo-6(S)-(3,4-difluorphenyl)-1,2,3,6-tetrahydropyrimidin-1-yl]carboxyaminopropyl}pyridinium chloride], the results for the Ki on human α2b receptor and on human α2c receptor were 9.66 µM and 3.39 µM, respectively.

Regarding `COC(=O)C1=C(CO)NC(=O)N(C(=O)NCCCN2CCC(c3ccccn3)CC2)[C@H]1c1ccc(F)c(F)c1` [Compound 7, (+)-1,2,3,6-Tetrahydro-1-{N-[4-(2-pyridyl)piperidin-1-yl]propyl}carboxamido-5-methoxycarbonyl-4-hydroxymethyl-6-(3,4-difluorophenyl)-2-oxopyrimidine], the Ki on human α2b receptor worked out at 1.2 µM; at human α2c receptor it was 0.26 µM.

In the case of `O=C(O)CCNC(=O)N1C(=O)NC2=C(C(=O)OC2)[C@@H]1c1ccc(F)c(F)c1` [Compound 9], the Ki at human α2b receptor and on human α2c receptor was over 50 µM each time.
